Where two headings read alike, the source gives them in different places.
How the values were obtained:
NCI-H1666 = test: CCK-8 tumor cell proliferation, NCI-H1666; type: cell-based, Human; conditions: read-out: IC50 inhibiting proliferation of tumor cells, NCI-H1666
Description: (§1) The tumor cells used herein were cultured in a cell culture medium listed in table 4 at 37° C. in an incubator with 5% CO2. Prior to experimentation, all cells used were correctly identified by STR profiling, and tested negative for mycoplasma through routine screenings.
(§2) IC50 values of the compounds of the present disclosure (including the compounds in Tables 1 and 3, and compounds of examples) were measured using the Meilun Cell Counting Kit-8 kit from Dalian Meilun Biotech Co., Ltd. Assay details are as follows: tumor cells were seeded in a 96-well plate at a density listed in Table 5. After 24 h, 100 μL of the inoculated cells were treated with 0.5 μL of the compounds of the present disclosure (including the compounds in Tables 1 and 3, and compounds of examples) at 10 different successively decreasing concentrations (starting at the highest concentration of 10 μM; 5-fold serial dilutions). After the cells were treated with the compounds of the present disclosure for a period of time, the cell viability detection reagent was added to the culture medium for cell viability assessment according to the instructions provided with the CCK-8 kit. […] The growth inhibition of the compounds of the present disclosure on cells was plotted by Prism Graphpad software, and the IC50 values of the compounds of the present disclosure were calculated therefrom.

SW620 = test: CCK-8 tumor cell proliferation, SW620; type: cell-based, Human; conditions: SW620, read-out: IC50 inhibiting proliferation of tumor cells, SW620
Outline: (§3)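 STR-authenticated, mycoplasma-negative cells were cultured at 37 °C with 5% CO2. One day after plating, they were treated with a 5-fold serial dilution of compound (10 points, highest 10 μM). CCK-8 was used to assess viability, giving IC50 values.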

Jurkat = test: CCK-8 tumor cell proliferation, Jurkat; type: cell-based, Human; conditions: Homo sapiens, Table 19, IRAK4 inhibitor based, read-out: IC50 inhibiting proliferation of tumor cells, Jurkat
Outline: as §3

MV-4-11 = test: CCK-8 tumor cell proliferation, MV-4-11; type: cell-based, Human; conditions: Homo sapiens, MV4-11; Table 19, IRAK4 inhibitor based; MV-4-11; read-out: IC50 inhibiting proliferation of tumor cells, MV-4-11
Outline: as §3

Kasumi-1 = test: CCK-8 tumor cell proliferation, Kasumi-1; type: cell-based, Human; conditions: Homo sapiens; Table 19, IRAK4 inhibitor based; Kasumi-1; read-out: IC50 inhibiting proliferation of tumor cells, Kasumi-1
Outline: as §3

MM.1R = test: CCK-8 tumor cell proliferation, MM.1R; type: cell-based; conditions: Table 19, IRAK4 inhibitor based, read-out: IC50 inhibiting proliferation of tumor cells, MM.1R
Outline: as §3

Mino = test: CCK-8 tumor cell proliferation, Mino; type: cell-based, Human; conditions: Mino, read-out: IC50 inhibiting proliferation of tumor cells, Mino
Outline: as §3

CAL-62 = test: CCK-8 tumor cell proliferation, CAL-62; type: cell-based, Human; conditions: Homo sapiens; Table 19, IRAK4 inhibitor based; CAL-62; read-out: IC50 inhibiting proliferation of tumor cells, CAL-62
Outline: as §3

SU-DHL-4 = test: CCK-8 tumor cell proliferation, SU-DHL-4; type: cell-based, Human; conditions: read-out: IC50 inhibiting proliferation of tumor cells, SU-DHL-4
Description: as §1, §2

CCRF-CEM = test: CCK-8 tumor cell proliferation, CCRF-CEM; type: cell-based, Human; conditions: Homo sapiens; Table 19, IRAK4 inhibitor based; CCRF-CEM; read-out: IC50 inhibiting proliferation of tumor cells, CCRF-CEM
Outline: as §3

[1] = Homo sapiens, Table 19, IRAK4 inhibitor based
[2] = Homo sapiens, SW-620, Table 19, IRAK4 inhibitor based
[3] = Homo sapiens, Table 19, given as number

## O=C1CCC(N2Cc3cc(CN4CCC(n5cc(NC(=O)c6cnn7ccc(N8CCOCC8)nc67)c(C(F)F)n5)CC4)ccc3C2=O)C(=O)N1 (centres unmarked) [GT-03809, N-(3-(difluoromethyl)-1-(1-((2-(2,6-dioxopiperidin-3-yl)-1-oxoisoindolin-5-yl)methyl)piperidin-4-yl)-1H-pyrazol-4-yl)-5-morpholinopyrazolo[1,5-a]pyrimidine-3-carboxamide]
NCI-H1666; [1]
  IC50: 500 to 1000 nM
SW620; [2]
  IC50: < 50 nM
Jurkat
  IC50: < 50 nM
MV-4-11
  IC50: < 50 nM
Kasumi-1
  IC50: < 50 nM
MM.1R
  IC50: < 50 nM
Mino; [1]
  IC50: < 50 nM
CAL-62
  IC50: < 50 nM
SU-DHL-4; [1]
  IC50: 500 to 1000 nM
CCRF-CEM
  IC50: < 50 nM

## O=C1CCC(N2Cc3c(ccc(CN4CCC(n5cc(NC(=O)c6cnn7ccc(N8CCOCC8)nc67)c(C(F)F)n5)CC4)c3F)C2=O)C(=O)N1 (centres unmarked) [GT-03810, N-(3-(difluoromethyl)-1-(1-((2-(2,6-dioxopiperidin-3-yl)-4-fluoro-1-oxoisoindolin-5-yl)methyl)piperidin-4-yl)-1H-pyrazol-4-yl)-5-morpholinopyrazolo[1,5-a]pyrimidine-3-carboxamide]
NCI-H1666; [1]
  IC50: 100 to 500 nM
SW620; [2]
  IC50: < 50 nM
Jurkat
  IC50: < 50 nM
MV-4-11
  IC50: < 50 nM
Kasumi-1
  IC50: < 50 nM
MM.1R
  IC50: < 50 nM
Mino; [1]
  IC50: < 50 nM
CAL-62
  IC50: < 50 nM
SU-DHL-4; [1]
  IC50: 100 to 500 nM
CCRF-CEM
  IC50: < 50 nM

## O=C1CCC(N2Cc3cc(CN4CCC(n5cc(NC(=O)c6cnn7ccc(N8CCOCC8)nc67)c(C(F)F)n5)CC4)c(F)cc3C2=O)C(=O)N1 (centres unmarked) [GT-03811, N-(3-(difluoromethyl)-1-(1-((2-(2,6-dioxopiperidin-3-yl)-6-fluoro-1-oxoisoindolin-5-yl)methyl)piperidin-4-yl)-1H-pyrazol-4-yl)-5-morpholinopyrazolo[1,5-a]pyrimidine-3-carboxamide]
NCI-H1666; [1]
  IC50: 50 to 100 nM
SW620; [2]
  IC50: < 50 nM
Jurkat
  IC50: < 50 nM
MV-4-11
  IC50: < 50 nM
Kasumi-1
  IC50: < 50 nM
MM.1R
  IC50: < 50 nM
Mino; [1]
  IC50: < 50 nM
CAL-62
  IC50: < 50 nM
SU-DHL-4; [1]
  IC50: 100 to 500 nM
CCRF-CEM
  IC50: < 50 nM

## CC[C@@H]1[C@H](F)C(=O)N[C@@H]1COc1nccc2cc(C(N)=O)c(OC)cc12 [PF06650833, reference compound]
NCI-H1666; Table 19, given as number
  IC50: > 10000 nM
SW620; Table 19, given as number
  IC50: > 10000 nM
Mino; Table 19, IRAK4 inhibitor based
  IC50: 5000 to 10000 nM
SU-DHL-4; Table 19, given as number
  IC50: > 10000 nM

## Cc1cc(-c2nc(C(=O)Nc3cc4oc(N5CCOCC5)nc4nc3N3CC[C@@H](O)C3)co2)ccn1 [emavusertib, reference compound]
NCI-H1666; [3]
  IC50: > 10000 nM
SW620; Homo sapiens, SW-620, Table 19, given as number
  IC50: > 10000 nM
Mino; [3]
  IC50: > 10000 nM
SU-DHL-4; [3]
  IC50: > 10000 nM

From patent US20260199323A1, “LIGAND COMPOUNDS FOR E3 UBIQUITIN LIGASE, PROTEIN DEGRADERS DEVELOPED ON BASIS OF LIGAND COMPOUNDS, AND USES THEREOF” (GLUETACS THERAPEUTICS (SHANGHAI) CO., LTD., priority 2021, published 2026)
